Assay results published in ChEMBL document CHEMBL1201862, “PubChem BioAssay data set” (2004).
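Test compounds were applied to cells in 96-well plates for 48 hours at 5 doses. At the GI50, growth is halved.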 Active and inactive are the calls of the source. No stated cut-off is given here; in the data, active = GI50 up to about 1.1 µM and inactive = higher.

Columns and labels:
Experiment in all cases: growth of human tumour cells (NCI), 48 h
786-0 = system: 786-0
A549 = system: A549
ACHN = system: ACHN
BT-549 = system: BT-549
CAKI-1 = system: CAKI-1
CCRF-CEM = system: CCRF-CEM
COLO 205 = system: COLO 205
DU-145 = system: DU-145
EKVX = system: EKVX
HCC 2998 = system: HCC 2998
HCT-116 = system: HCT-116
HCT-15 = system: HCT-15
HL-60 = system: HL-60
HOP-62 = system: HOP-62
HOP-92 = system: HOP-92
HT-29 = system: HT-29
Hs-578T = system: Hs-578T
IGROV-1 = system: IGROV-1
K562 = system: K562
KM12 = system: KM12
LOX IMVI = system: LOX IMVI
M14 = system: M14
MCF7 = system: MCF7
MDA-MB-231 = system: MDA-MB-231
MDA-MB-435 = system: MDA-MB-435
MDA-N = system: MDA-N
MOLT-4 = system: MOLT-4
Malme-3M = system: Malme-3M
NCI-H226 = system: NCI-H226
NCI-H460 = system: NCI-H460
NCI-H522 = system: NCI-H522
NCI/ADR-RES = system: NCI/ADR-RES
OVCAR-3 = system: OVCAR-3
OVCAR-4 = system: OVCAR-4
OVCAR-5 = system: OVCAR-5
OVCAR-8 = system: OVCAR-8
PC-3 = system: PC-3
RPMI-8226 = system: RPMI-8226
RXF 393 = system: RXF 393
SF-268 = system: SF-268
SF-295 = system: SF-295
SF-539 = system: SF-539
SK-MEL-28 = system: SK-MEL-28
SK-MEL-2 = system: SK-MEL-2
SK-MEL-5 = system: SK-MEL-5
SK-OV-3 = system: SK-OV-3
SN12C = system: SN12C
SNB-75 = system: SNB-75
SR = system: SR
SW-620 = system: SW-620
T47D = system: T47D
TK-10 = system: TK-10
U-251 = system: U-251
UACC-257 = system: UACC-257
UACC-62 = system: UACC-62
UO-31 = system: UO-31

Measured: GI50

COc1ccc2nc3cc([N+](=O)[O-])ccc3c(Nc3ccc(S(=O)(=O)Nc4ncccn4)cc3)c2c1
inactive: 786-0 67 µM | A549 > 100 µM | ACHN 28.8 µM | BT-549 > 44.4 µM | CAKI-1 > 100 µM | CCRF-CEM > 76.9 µM | COLO 205 40.3 µM | DU-145 > 100 µM | EKVX > 100 µM | HCC 2998 > 59 µM | HCT-116 40.6 µM | HL-60 > 100 µM | HOP-62 > 64.9 µM | HOP-92 > 44.7 µM | HT-29 26.5 µM | Hs-578T 12.4 µM | IGROV-1 15 µM | K562 35.4 µM | KM12 31.7 µM | LOX IMVI > 73.8 µM | M14 48.8 µM | MCF7 15.3 µM | MDA-MB-231 > 60.1 µM | MDA-MB-435 > 67.3 µM | MDA-N > 89.1 µM | MOLT-4 > 20.2 µM | Malme-3M 48.3 µM | NCI-H226 69.3 µM | NCI-H460 61.5 µM | NCI-H522 > 71.1 µM | NCI/ADR-RES > 100 µM | OVCAR-3 > 50.4 µM | OVCAR-4 > 100 µM | OVCAR-5 > 100 µM | OVCAR-8 45.2 µM | PC-3 30.6 µM | RPMI-8226 14.5 µM | RXF 393 > 100 µM | SF-268 40 µM | SF-295 99.5 µM | SF-539 > 100 µM | SK-MEL-28 > 85.5 µM | SK-MEL-2 > 43.4 µM | SK-MEL-5 41.6 µM | SK-OV-3 > 100 µM | SN12C > 100 µM | SNB-75 62.2 µM | SR 6.24 µM | SW-620 > 76.7 µM | T47D > 100 µM | TK-10 66.8 µM | U-251 > 55 µM | UACC-257 > 71.1 µM | UACC-62 > 65.9 µM | UO-31 19.4 µM
> 69.8 µM: HCT-15
